The conditions of the series: 101.33 kPa, Liquid, Vibrating tube method.

± gives the expanded uncertainty stated by the source.

On to `C[n+]1ccn(CCCCS(=O)(=O)O)c1.O=S(=O)([N-]S(=O)(=O)C(F)(F)F)C(F)(F)F`, for which the mass density is, setting by setting: (283.15 K) 1597.92 ± 80 kg/m3; (288.15 K) 1592.96 ± 80 kg/m3; (293.15 K) 1587.85 ± 80 kg/m3; (298.15 K) 1582.58 ± 80 kg/m3; (303.15 K) 1577.87 ± 80 kg/m3; (308.15 K) 1573.18 ± 80 kg/m3. Besides, the mass density turned out to be 1568.52 ± 80 kg/m3 (313.15 K); 1563.87 ± 80 kg/m3 (318.15 K); 1559.23 ± 80 kg/m3 (323.15 K); 1554.6 ± 80 kg/m3 (328.15 K); 1550.01 ± 80 kg/m3 (333.15 K); 1545.56 ± 80 kg/m3 (338.15 K). Moreover, the mass density by setting is: (343.15 K) 1541.12 ± 80 kg/m3; (348.15 K) 1536.68 ± 80 kg/m3; (353.15 K) 1532.23 ± 80 kg/m3.
Consider `CCC[n+]1cccc(C)c1.O=S(=O)([N-]S(=O)(=O)C(F)(F)F)C(F)(F)F`, for which the mass density reads like this: (278.15 K) 1467.23 ± 80 kg/m3; (283.15 K) 1462.43 ± 80 kg/m3; (288.15 K) 1457.62 ± 80 kg/m3; (293.15 K) 1452.81 ± 80 kg/m3; (298.15 K) 1448.03 ± 80 kg/m3; (303.15 K) 1443.28 ± 80 kg/m3. The mass density (308.15 K) is 1438.54 ± 80 kg/m3; the mass density (313.15 K) is given as 1433.81 ± 80 kg/m3; the mass density (318.15 K) came out at 1429.11 ± 80 kg/m3; the mass density (323.15 K) turned out to be 1424.43 ± 80 kg/m3; the mass density (328.15 K) was 1419.79 ± 80 kg/m3; the mass density (333.15 K) was 1415.16 ± 80 kg/m3. The mass density came to 1409.8 ± 80 kg/m3 (338.15 K), 1405.96 ± 80 kg/m3 (343.15 K), 1401.4 ± 80 kg/m3 (348.15 K) and 1396.85 ± 80 kg/m3 (353.15 K).
In the case of `C[n+]1ccn(CCCCS(=O)(=O)O)c1.O=S(=O)([O-])O` [1-methyl-3-(4-sulfobutyl)-imidazolium hydrogensulfate], the mass density by setting is: (283.15 K) 1450.3 ± 80 kg/m3; (288.15 K) 1447.02 ± 80 kg/m3; (298.15 K) 1437.08 ± 80 kg/m3; (303.15 K) 1433.68 ± 80 kg/m3; (313.15 K) 1426.76 ± 80 kg/m3; (323.15 K) 1420.51 ± 80 kg/m3. In addition, the mass density reads like this: (333.15 K) 1414.28 ± 80 kg/m3; (343.15 K) 1408.07 ± 80 kg/m3; (353.15 K) 1401.8 ± 80 kg/m3.
As to `CC(O)C(=O)[O-].CCn1cc[n+](C)c1` [1-ethyl-3-methylimidazolium lactate], the mass density was determined as 1157.45 ± 7.3 kg/m3 (278.15 K); 1153.47 ± 7.2 kg/m3 (283.15 K); 1149.77 ± 7.2 kg/m3 (288.15 K); 1146.11 ± 7.1 kg/m3 (293.15 K); 1142.46 ± 7.1 kg/m3 (298.15 K); 1138.89 ± 7 kg/m3 (303.15 K). Also, the mass density by setting is: (308.15 K) 1135.43 ± 7 kg/m3; (313.15 K) 1131.95 ± 7 kg/m3; (318.15 K) 1128.51 ± 6.9 kg/m3; (323.15 K) 1125.07 ± 6.9 kg/m3; (328.15 K) 1121.67 ± 6.8 kg/m3; (333.15 K) 1118.51 ± 6.8 kg/m3. Moreover, the mass density was 1117.98 ± 6.8 kg/m3 (338.15 K), 1111.66 ± 6.7 kg/m3 (343.15 K), 1108.39 ± 6.7 kg/m3 (348.15 K) and 1105.14 ± 6.6 kg/m3 (353.15 K).

By mass density is commonly meant mass per unit of volume.

(Values after the NIST ThermoML archive (doi:10.1016/j.fluid.2016.03.009).)
